Source: patent EP4678638A1, “NEW E3 UBIQUITIN LIGASE LIGAND, PROTEIN DEGRADATION AGENT AND USE THEREOF” (priority 2023, dated 2024)

What was measured:
IKZF1 = target: T1, IKZF1 (Homo sapiens, UniProt Q13422+Q96SW2); assay: Western blot degradation of IKZF1 (hPBMC); format: cell-based; details: Table D16
T1 construct: evaluate the effects of the compounds of the present disclosure on the expression of target proteins in cells; endogenous in cells; host or cells: hPBMC
Experimental: (§1) Conventional Western blot assay was performed to evaluate the effects of the compounds of the present disclosure on the expression of target proteins in cells.
(§2) (1) Cell Seeding and Protein Harvesting: The selected cells were processed according to the cell seeding procedure and protein harvesting procedure in Table III-2. Table III-2 Cell Seeding and Protein Harvesting Procedures
(§3) (2) To the collected supernatant, 5X SDS sample loading buffer was added, followed by denaturation at 95°C for 5 minutes. The denatured samples were then separated by SDS-PAGE electrophoresis on a polyacrylamide gel. Proteins were transferred to a nitrocellulose membrane (0.45 µm NC membrane), blocked with blocking buffer at room temperature for 1 hour, and subjected to antibody incubation and development procedures according to the antibody manufacturer's instructions (Cell Signaling Technology).
(§4) Half-Maximal Degradation Concentration value (the drug concentration required for degrading proteins by 50%, abbreviated as DC50) reads method: comparing the grayscale values of Western blot bands from drug-treated samples with those from blank DMSO-treated controls, and identifying the drug concentration range at which the grayscale value is half that of the DMSO-treated control bands.
(§5) DC50 values can be calculated using ImageJ software to measure grayscale values of Western blot bands from drug-treated samples. The concentration-response curve is fitted to estimate the drug concentration corresponding to half the grayscale value.
(§6) Target protein remaining (%) refers to the percentage of target protein remaining in hPBMC cells after treatment with protein degrader compounds.
(§7) Calculation method for target protein remaining (%): Use ImageJ software to measure grayscale values of Western blot bands from drug (protein degrader)-treated samples. The grayscale value of drug-treated bands is divided by that of internal control protein bands, and the resulting quotient is normalized to obtain the relative percentage of remaining target protein after protein degrader treatment.
(§8) Target protein degradation rate (%) = 100% - target protein remaining (%).

CK1a = target: T2, CK1a (Homo sapiens, UniProt P48729+Q96SW2); assay: Western blot degradation of CK1a (hPBMC); format: cell-based; details: Table D16
T2 construct: evaluate the effects of the compounds of the present disclosure on the expression of target proteins in cells; endogenous in cells; host or cells: hPBMC
Experimental: as §1, §2, §3, §4, §5, §6, §7, §8

WEE1 = target: T3, WEE1 (Homo sapiens, UniProt P30291+Q96SW2); assay: Western blot degradation of WEE1 (hPBMC); format: cell-based; details: Table D16
T3 construct: evaluate the effects of the compounds of the present disclosure on the expression of target proteins in cells; endogenous in cells; host or cells: hPBMC
Experimental: as §1, §2, §3, §4, §5, §6, §7, §8

IKZF3 = target: T4, IKZF3 (Homo sapiens, UniProt Q96SW2+Q9UKT9); assay: Western blot degradation of IKZF3 (hPBMC); format: cell-based; details: Table D16
T4 construct: evaluate the effects of the compounds of the present disclosure on the expression of target proteins in cells; endogenous in cells; host or cells: hPBMC
Experimental: as §1, §2, §3, §4, §5, §6, §7, §8

GSPT1 = target: T5, GSPT1 (Homo sapiens, UniProt P15170+Q96SW2); assay: Western blot degradation of GSPT1 (hPBMC); format: cell-based; details: Table D16
T5 construct: evaluate the effects of the compounds of the present disclosure on the expression of target proteins in cells; endogenous in cells; host or cells: hPBMC
Experimental: as §1, §2, §3, §4, §5, §6, §7, §8

IKZF2 = target: T6, IKZF2 (Homo sapiens, UniProt Q96SW2+Q9UKS7); assay: Western blot degradation of IKZF2 (hPBMC); format: cell-based; details: Table D16
T6 construct: evaluate the effects of the compounds of the present disclosure on the expression of target proteins in cells; endogenous in cells; host or cells: hPBMC
Experimental: as §1, §2, §3, §4, §5, §6, §7, §8

SR = assay: CCK-8 proliferation, SR; format: cell-based, Human; details: Homo sapiens; Table B6, compounds designed based on the ALK inhibitors; SR cells; read-out: Inhibitory activity (IC50, nM) on tumor cell proliferation, SR
How it was run: (§9)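 CCK-8 viability readout; IC50 from growth-inhibition curve fitting. Cells plated, dosed 24h later with a 10-point series, top 10µM, 5-fold steps. Culture at 37°C, 5% CO2.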

MCF7 = assay: CCK-8 proliferation, MCF7 (MCF-7); format: cell-based; details: Homo sapiens, MCF7; Table B6, compounds designed based on the ALK inhibitors; MCF-7 cells; read-out: Inhibitory activity (IC50, nM) on tumor cell proliferation, MCF-7
How it was run: as §9

H2228 = assay: CCK-8 proliferation, NCI-H2228 (H2228); format: cell-based; details: Homo sapiens, NCI-H2228; Table B6, compounds designed based on the ALK inhibitors; H2228 cells; read-out: Inhibitory activity (IC50, nM) on tumor cell proliferation, H2228
How it was run: as §9

MM.1S = assay: CCK-8 proliferation, MM.1S; format: cell-based; details: Homo sapiens, MM1.S; Table B6, compounds designed based on the ALK inhibitors; MM.1S cells; read-out: Inhibitory activity (IC50, nM) on tumor cell proliferation, MM.1S
How it was run: as §9

ALK = target: T7, ALK (Homo sapiens, UniProt Q96SW2+Q9HC35+Q9UM73); assay: Western blot degradation of ALK (H2228 Cell); format: cell-based; details: Table D5
T7 construct: evaluate the effects of the compounds of the present disclosure on the expression of target proteins in cells; endogenous in cells; host or cells: H2228
How it was run: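 Degradation is assessed by immunoblotting lysates of treated cells. Target bands are quantified by grayscale and normalised to an internal control, so degradation rate equals 100% minus % remaining.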

H1975 = assay: CCK-8 proliferation, NCI-H1975 (H1975); format: cell-based, Human; details: Homo sapiens, NCI-H1975; Table B6, compounds designed based on the ALK inhibitors; H1975 cells; read-out: Inhibitory activity (IC50, nM) on tumor cell proliferation, H1975
How it was run: as §9

T4 sequence (Q9UKT9 whole entry): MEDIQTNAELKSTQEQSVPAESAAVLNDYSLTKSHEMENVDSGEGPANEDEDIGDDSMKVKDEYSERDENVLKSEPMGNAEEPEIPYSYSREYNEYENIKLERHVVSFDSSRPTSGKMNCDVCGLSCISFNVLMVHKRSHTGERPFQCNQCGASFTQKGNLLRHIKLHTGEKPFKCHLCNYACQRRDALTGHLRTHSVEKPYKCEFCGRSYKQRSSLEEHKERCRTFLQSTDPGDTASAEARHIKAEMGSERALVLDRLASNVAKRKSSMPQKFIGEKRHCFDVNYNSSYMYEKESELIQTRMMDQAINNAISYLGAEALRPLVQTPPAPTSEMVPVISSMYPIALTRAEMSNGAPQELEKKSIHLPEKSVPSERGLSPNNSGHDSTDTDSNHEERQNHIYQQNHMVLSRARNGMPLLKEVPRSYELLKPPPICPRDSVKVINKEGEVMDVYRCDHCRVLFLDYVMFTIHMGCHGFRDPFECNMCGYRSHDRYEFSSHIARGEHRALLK
T4 sequence (Q96SW2 whole entry): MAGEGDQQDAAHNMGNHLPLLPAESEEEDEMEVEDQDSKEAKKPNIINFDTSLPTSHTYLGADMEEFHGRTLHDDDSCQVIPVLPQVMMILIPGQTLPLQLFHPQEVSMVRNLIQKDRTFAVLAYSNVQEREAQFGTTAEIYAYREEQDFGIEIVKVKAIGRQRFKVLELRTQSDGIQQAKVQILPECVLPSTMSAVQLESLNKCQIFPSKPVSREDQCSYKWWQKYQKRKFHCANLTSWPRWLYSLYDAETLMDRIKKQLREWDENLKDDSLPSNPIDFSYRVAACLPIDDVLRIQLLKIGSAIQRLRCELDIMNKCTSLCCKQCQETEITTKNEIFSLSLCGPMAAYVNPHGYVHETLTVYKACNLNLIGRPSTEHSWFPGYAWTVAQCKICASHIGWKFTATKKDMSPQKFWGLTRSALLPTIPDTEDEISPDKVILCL
T4 sequence (Q16531 whole entry partner): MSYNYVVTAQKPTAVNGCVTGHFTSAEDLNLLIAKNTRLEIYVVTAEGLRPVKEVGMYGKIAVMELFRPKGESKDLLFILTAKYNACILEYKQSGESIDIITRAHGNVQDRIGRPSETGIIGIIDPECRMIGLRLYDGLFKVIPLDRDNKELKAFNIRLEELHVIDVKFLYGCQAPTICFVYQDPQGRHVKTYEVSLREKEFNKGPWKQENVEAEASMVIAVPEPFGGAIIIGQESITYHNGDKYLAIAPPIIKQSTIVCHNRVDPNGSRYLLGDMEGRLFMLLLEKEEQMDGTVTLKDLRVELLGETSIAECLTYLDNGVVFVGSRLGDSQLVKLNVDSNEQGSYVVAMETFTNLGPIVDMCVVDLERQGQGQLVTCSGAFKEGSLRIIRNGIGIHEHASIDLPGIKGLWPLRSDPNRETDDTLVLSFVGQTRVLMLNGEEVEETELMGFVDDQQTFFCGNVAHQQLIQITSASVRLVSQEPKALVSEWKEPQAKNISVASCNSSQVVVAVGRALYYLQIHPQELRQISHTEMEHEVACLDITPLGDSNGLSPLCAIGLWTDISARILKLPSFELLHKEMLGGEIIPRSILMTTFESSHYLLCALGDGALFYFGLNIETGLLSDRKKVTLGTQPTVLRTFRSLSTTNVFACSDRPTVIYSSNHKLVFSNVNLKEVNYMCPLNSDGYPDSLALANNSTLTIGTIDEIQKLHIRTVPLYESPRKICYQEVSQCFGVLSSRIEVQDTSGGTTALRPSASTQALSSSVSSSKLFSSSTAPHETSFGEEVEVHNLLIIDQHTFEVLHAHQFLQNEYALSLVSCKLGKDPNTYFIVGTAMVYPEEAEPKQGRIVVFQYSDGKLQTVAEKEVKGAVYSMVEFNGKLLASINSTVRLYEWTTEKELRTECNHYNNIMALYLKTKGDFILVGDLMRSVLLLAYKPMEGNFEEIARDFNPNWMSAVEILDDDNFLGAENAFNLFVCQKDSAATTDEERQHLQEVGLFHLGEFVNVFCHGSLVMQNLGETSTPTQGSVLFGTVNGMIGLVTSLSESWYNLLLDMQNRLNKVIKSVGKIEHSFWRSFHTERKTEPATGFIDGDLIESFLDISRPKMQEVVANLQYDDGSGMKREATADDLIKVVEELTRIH
T5 sequence (P15170 whole entry): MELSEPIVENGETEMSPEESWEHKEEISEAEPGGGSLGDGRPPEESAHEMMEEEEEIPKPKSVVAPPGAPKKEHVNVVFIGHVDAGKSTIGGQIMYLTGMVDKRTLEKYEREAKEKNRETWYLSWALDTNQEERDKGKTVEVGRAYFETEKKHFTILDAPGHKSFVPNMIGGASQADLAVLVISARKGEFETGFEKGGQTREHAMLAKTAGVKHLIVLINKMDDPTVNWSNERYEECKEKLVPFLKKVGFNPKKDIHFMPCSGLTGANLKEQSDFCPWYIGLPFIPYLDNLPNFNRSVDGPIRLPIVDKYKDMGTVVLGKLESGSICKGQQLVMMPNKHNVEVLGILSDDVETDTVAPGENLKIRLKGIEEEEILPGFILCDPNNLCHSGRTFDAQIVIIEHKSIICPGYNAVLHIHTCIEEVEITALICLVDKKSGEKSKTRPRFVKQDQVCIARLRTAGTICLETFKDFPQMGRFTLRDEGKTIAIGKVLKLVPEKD
T5 sequence (Q96SW2 whole entry): as the sequence (Q96SW2 whole entry) above
T5 sequence (Q16531 whole entry partner): as the sequence (Q16531 whole entry partner) above
T3 sequence (P30291 whole entry): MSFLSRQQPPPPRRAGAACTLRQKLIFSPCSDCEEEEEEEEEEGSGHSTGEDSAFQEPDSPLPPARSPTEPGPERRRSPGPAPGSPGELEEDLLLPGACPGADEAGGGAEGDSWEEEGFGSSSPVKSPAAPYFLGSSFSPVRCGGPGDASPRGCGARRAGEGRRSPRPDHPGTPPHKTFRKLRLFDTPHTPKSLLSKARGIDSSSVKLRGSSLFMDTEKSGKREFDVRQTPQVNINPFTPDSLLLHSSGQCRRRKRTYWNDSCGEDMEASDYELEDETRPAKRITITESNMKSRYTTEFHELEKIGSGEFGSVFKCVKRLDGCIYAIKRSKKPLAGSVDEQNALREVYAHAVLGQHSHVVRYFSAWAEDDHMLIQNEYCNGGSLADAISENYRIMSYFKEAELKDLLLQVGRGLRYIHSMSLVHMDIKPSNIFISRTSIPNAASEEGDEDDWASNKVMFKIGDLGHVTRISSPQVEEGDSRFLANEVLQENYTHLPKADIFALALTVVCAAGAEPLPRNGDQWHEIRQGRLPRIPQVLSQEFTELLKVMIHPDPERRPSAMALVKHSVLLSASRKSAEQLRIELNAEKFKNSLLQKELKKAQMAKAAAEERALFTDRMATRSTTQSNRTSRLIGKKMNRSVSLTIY
T3 sequence (Q96SW2 whole entry): as the sequence (Q96SW2 whole entry) above
T3 sequence (Q16531 whole entry partner): as the sequence (Q16531 whole entry partner) above
T2 sequence (P48729 whole entry): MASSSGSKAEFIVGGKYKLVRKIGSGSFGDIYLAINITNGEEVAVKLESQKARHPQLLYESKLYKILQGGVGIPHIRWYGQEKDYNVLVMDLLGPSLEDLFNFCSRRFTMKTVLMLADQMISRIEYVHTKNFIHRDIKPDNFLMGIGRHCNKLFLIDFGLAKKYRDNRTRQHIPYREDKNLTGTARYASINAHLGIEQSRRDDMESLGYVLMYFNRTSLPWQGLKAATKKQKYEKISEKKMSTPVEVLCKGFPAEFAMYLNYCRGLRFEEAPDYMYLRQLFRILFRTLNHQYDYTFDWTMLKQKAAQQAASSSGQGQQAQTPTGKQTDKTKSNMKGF
T2 sequence (Q96SW2 whole entry): as the sequence (Q96SW2 whole entry) above
T2 sequence (Q16531 whole entry partner): as the sequence (Q16531 whole entry partner) above
T1 sequence (Q13422 whole entry): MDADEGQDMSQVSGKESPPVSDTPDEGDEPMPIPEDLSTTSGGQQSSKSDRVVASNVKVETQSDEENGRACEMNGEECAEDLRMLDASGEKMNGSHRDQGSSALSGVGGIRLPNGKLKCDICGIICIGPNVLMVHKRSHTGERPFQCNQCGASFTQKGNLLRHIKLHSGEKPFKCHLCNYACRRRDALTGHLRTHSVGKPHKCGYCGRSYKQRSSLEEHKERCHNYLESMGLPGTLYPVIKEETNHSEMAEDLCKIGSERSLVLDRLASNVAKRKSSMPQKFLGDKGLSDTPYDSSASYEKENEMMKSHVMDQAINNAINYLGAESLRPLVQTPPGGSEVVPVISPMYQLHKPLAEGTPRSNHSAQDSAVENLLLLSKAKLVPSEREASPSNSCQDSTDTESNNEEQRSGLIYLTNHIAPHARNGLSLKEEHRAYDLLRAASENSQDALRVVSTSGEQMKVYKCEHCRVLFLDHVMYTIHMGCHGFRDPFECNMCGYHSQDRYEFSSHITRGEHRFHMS
T1 sequence (Q96SW2 whole entry): as the sequence (Q96SW2 whole entry) above
T1 sequence (Q16531 whole entry partner): as the sequence (Q16531 whole entry partner) above

## O=C1CCN(c2ccc(CCl)cn2)C(=O)N1 [GT-07009, 1-(5-(Chloromethyl)pyridin-2-yl)dihydropyrimidine-2,4(1H,3H)-dione]
IKZF1
  Degradation of substrate protein IKZF1 (substrate protein remaining %): B (B is defined as substrate protein remaining % > 80%)
CK1a
  Degradation of substrate protein CKla (substrate protein remaining %): A (A is defined as 0% ≤ substrate protein remaining % ≤ 80%)
WEE1
  Degradation of substrate protein WEE1 (substrate protein remaining %): B (B is defined as substrate protein remaining % > 80%)
IKZF3
  Degradation of substrate protein IKZF3 (substrate protein remaining %): B (B is defined as substrate protein remaining % > 80%)
GSPT1
  Degradation of substrate protein GSPT1 (substrate protein remaining %): B (B is defined as substrate protein remaining % > 80%)
IKZF2
  Degradation of substrate protein IKZF2 (substrate protein remaining %): B (B is defined as substrate protein remaining % > 80%)

## O=C1CCC(Nc2ncc(CO)cn2)C(=O)N1 (centres unmarked) [GT-07809, 3-((5-(Hydroxymethyl)pyrimidin-2-yl)amino)piperidine-2,6-dione]
IKZF1
  Degradation of substrate protein IKZF1 (substrate protein remaining %): A (A is defined as 0% ≤ substrate protein remaining % ≤ 80%)
CK1a
  Degradation of substrate protein CKla (substrate protein remaining %): B (B is defined as substrate protein remaining % > 80%)
WEE1
  Degradation of substrate protein WEE1 (substrate protein remaining %): A (A is defined as 0% ≤ substrate protein remaining % ≤ 80%)
IKZF3
  Degradation of substrate protein IKZF3 (substrate protein remaining %): A (A is defined as 0% ≤ substrate protein remaining % ≤ 80%)
GSPT1
  Degradation of substrate protein GSPT1 (substrate protein remaining %): B (B is defined as substrate protein remaining % > 80%)
IKZF2
  Degradation of substrate protein IKZF2 (substrate protein remaining %): A (A is defined as 0% ≤ substrate protein remaining % ≤ 80%)

## CC(C)(C)[Si](C)(C)OCc1cncnc1NC1CCC(=O)NC1=O (centres unmarked) [GT-07639, 3-((5-(((tert-Butyldimethylsilyl)oxy)methyl)pyrimidin-4-yl)amino)piperidine-2,6-dione]
IKZF1
  Degradation of substrate protein IKZF1 (substrate protein remaining %): A (A is defined as 0% ≤ substrate protein remaining % ≤ 80%)
CK1a
  Degradation of substrate protein CKla (substrate protein remaining %): A (A is defined as 0% ≤ substrate protein remaining % ≤ 80%)
WEE1
  Degradation of substrate protein WEE1 (substrate protein remaining %): A (A is defined as 0% ≤ substrate protein remaining % ≤ 80%)
IKZF3
  Degradation of substrate protein IKZF3 (substrate protein remaining %): A (A is defined as 0% ≤ substrate protein remaining % ≤ 80%)
GSPT1
  Degradation of substrate protein GSPT1 (substrate protein remaining %): A (A is defined as 0% ≤ substrate protein remaining % ≤ 80%)
IKZF2
  Degradation of substrate protein IKZF2 (substrate protein remaining %): A (A is defined as 0% ≤ substrate protein remaining % ≤ 80%)

## O=C1CCC(c2ncc(CO)cc2F)C(=O)N1 (centres unmarked) [GT-07443, 3-(3-Fluoro-5-(hydroxymethyl)pyridin-2-yl)piperidine-2,6-dione]
IKZF1
  Degradation of substrate protein IKZF1 (substrate protein remaining %): A (A is defined as 0% ≤ substrate protein remaining % ≤ 80%)
CK1a
  Degradation of substrate protein CKla (substrate protein remaining %): A (A is defined as 0% ≤ substrate protein remaining % ≤ 80%)
WEE1
  Degradation of substrate protein WEE1 (substrate protein remaining %): A (A is defined as 0% ≤ substrate protein remaining % ≤ 80%)
IKZF3
  Degradation of substrate protein IKZF3 (substrate protein remaining %): B (B is defined as substrate protein remaining % > 80%)
GSPT1
  Degradation of substrate protein GSPT1 (substrate protein remaining %): A (A is defined as 0% ≤ substrate protein remaining % ≤ 80%)
IKZF2
  Degradation of substrate protein IKZF2 (substrate protein remaining %): A (A is defined as 0% ≤ substrate protein remaining % ≤ 80%)

## NCc1cncc(N2CCC(=O)NC2=O)n1 [GT-07801, 1-(6-(Aminomethyl)pyrazin-2-yl)dihydropyrimidine-2,4(1H,3H)-dione]
IKZF1
  Degradation of substrate protein IKZF1 (substrate protein remaining %): B (B is defined as substrate protein remaining % > 80%)
CK1a
  Degradation of substrate protein CKla (substrate protein remaining %): A (A is defined as 0% ≤ substrate protein remaining % ≤ 80%)
WEE1
  Degradation of substrate protein WEE1 (substrate protein remaining %): B (B is defined as substrate protein remaining % > 80%)
IKZF3
  Degradation of substrate protein IKZF3 (substrate protein remaining %): B (B is defined as substrate protein remaining % > 80%)
GSPT1
  Degradation of substrate protein GSPT1 (substrate protein remaining %): B (B is defined as substrate protein remaining % > 80%)
IKZF2
  Degradation of substrate protein IKZF2 (substrate protein remaining %): B (B is defined as substrate protein remaining % > 80%)

## O=C1CCN(c2cncc(CO)n2)C(=O)N1 [GT-07632, 1-(6-(Hydroxymethyl)pyrazin-2-yl)dihydropyrimidine-2,4(1H,3H)-dione]
IKZF1
  Degradation of substrate protein IKZF1 (substrate protein remaining %): A (A is defined as 0% ≤ substrate protein remaining % ≤ 80%)
CK1a
  Degradation of substrate protein CKla (substrate protein remaining %): A (A is defined as 0% ≤ substrate protein remaining % ≤ 80%)
WEE1
  Degradation of substrate protein WEE1 (substrate protein remaining %): A (A is defined as 0% ≤ substrate protein remaining % ≤ 80%)
IKZF3
  Degradation of substrate protein IKZF3 (substrate protein remaining %): A (A is defined as 0% ≤ substrate protein remaining % ≤ 80%)
GSPT1
  Degradation of substrate protein GSPT1 (substrate protein remaining %): B (B is defined as substrate protein remaining % > 80%)
IKZF2
  Degradation of substrate protein IKZF2 (substrate protein remaining %): A (A is defined as 0% ≤ substrate protein remaining % ≤ 80%)

## COc1cc(N2CCC(N(C)Cc3ccnc(N4CCC(=O)NC4=O)c3)CC2)ccc1Nc1ncc(Cl)c(Nc2ccccc2P(C)(C)=O)n1 [GT-07694, 1-(4-(((1-(4-((5-chloro-4-((2-(dimethylphosphoryl)phenyl)amino)pyrimidin-2-yl)amino)-3-methoxyphenyl)piperidin-4-yl)(methyl)amino)methyl)pyridin-2-yl)dihydropyrimidine-2,4(1H,3H)-dione]
SR
  IC50: 1 to 10 nM
MCF7
  IC50: 100 to 500 nM
H2228
  IC50: 10 to 50 nM
MM.1S
  IC50: 500 to 1000 nM
ALK
  Degradation of substrate protein ALK (substrate protein remaining %): A (A is defined as 0% ≤ substrate protein remaining % ≤ 80%)
H1975
  IC50: 100 to 500 nM

## Cc1cc(Nc2ncc(Cl)c(Nc3ccccc3S(=O)(=O)C(C)C)n2)c(OC(C)C)cc1C1CCN(Cc2cccc(N3CCC(=O)NC3=O)c2)CC1 [GT-07593, 1-(3-((4-(4-((5-chloro-4-((2-(isopropylsulfonyl)phenyl)amino)pyrimidin-2-yl)amino)-5-isopropoxy-2-methylphenyl)piperidin-1-yl)methyl)phenyl)dihydropyr imidine-2,4(1H,3H)-dione]
SR
  IC50: 10 to 50 nM
MCF7
  IC50: 100 to 500 nM
H2228
  IC50: 50 to 100 nM
MM.1S
  IC50: 500 to 1000 nM
ALK
  Degradation of substrate protein ALK (substrate protein remaining %): A (A is defined as 0% ≤ substrate protein remaining % ≤ 80%)
